Data reported in patent publication US20260035403A1, “NUCLEOSIDE LINE-1 INHIBITORS” (TRANSPOSON THERAPEUTICS, INC., priority 2022, published 2026).

test system: human LINE-1; assay: Human LINE-1 retrotransposition assay (HeLa cell-based dual-luciferase reporter); details: Homo sapiens, HeLa, 72 h, Human LINE-1 activity inhibition; HeLa cells, reporter plasmid pYX017, Firefly/Renilla, 72 h incubation
In short: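 HeLa cells transfected with pYX017 dual-luciferase L1 reporter and treated with serially diluted compound (0.2% DMSO final) for 72 h at 37° C. Relative L1 activity as Firefly/Renilla ratio; IC50 from four-parameter logistic fit.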

IC50 | SMILES
9.17 µM | C[C@]1(CO)O[C@@H](n2cc(F)c(=O)[nH]c2=O)[C@H](O)[C@@H]1O [compound 189, 1-((2R,3R,4S,5R)-3,4-dihydroxy-5-(hydroxymethyl)-5-methyltetrahydrofuran-2-yl)-5-fluoropyrimidine-2,4(1H,3H)-dione]
4.9 µM | C=C[C@]1(CO)O[C@H](Nc2[nH]c(=O)ncc2Br)C[C@@H]1O [compound 104, 5-bromo-6-(((2S,4S,5R)-4-hydroxy-5-(hydroxymethyl)-5-vinyltetrahydrofuran-2-yl)amino)pyrimidin-2(1H)-one]
3.4 µM | C#C[C@]1(CO)O[C@@H](n2cnc3c(NC4CC4)ncnc32)C[C@@H]1O [compound 86, (2R,3S,5R)-5-(6-(cyclopropylamino)-9H-purin-9-yl)-2-ethynyl-2-(hydroxymethyl)tetrahydrofuran-3-ol]
> 50 µM | C#C[C@@]1(CO)C=C[C@H](n2cnc3c(Cl)ncnc32)O1 [compound 39, ((2R,5R)-5-(6-chloro-9H-purin-9-yl)-2-ethynyl-2,5-dihydrofuran-2-yl)methanol]
14 µM | COc1nc(N)nc2c1ncn2[C@H]1C[C@H](O)[C@](CO)(CF)O1 [compound 163, (2R,3S,5R)-5-(2-amino-6-methoxy-9H-purin-9-yl)-2-(fluoromethyl)-2-(hydroxymethyl)tetrahydrofuran-3-ol]
0.067 µM | [2H]C([2H])([2H])c1cn([C@H]2C=C[C@@](C#C)(CO)O2)c(=O)[nH]c1=O [compound 37, 1-((2R,5R)-5-ethynyl-5-(hydroxymethyl)-2,5-dihydrofuran-2-yl)-5-(methyl-d3)pyrimidine-2,4(1H,3H)-dione]
> 50 µM | C=C[C@]1(CO)O[C@@H](n2cnc3c(NC4CC4)ncnc32)C[C@@H]1O [Cpd. No. 94, (2R,3S,5R)-5-(6-(cyclopropylamino)-9H-purin-9-yl)-2-(hydroxymethyl)-2-vinyltetrahydrofuran-3-ol]
21.9 µM | C=C[C@]1(CO)O[C@H](n2cc(Br)c(=O)[nH]c2=O)C[C@@H]1O [compound 65, 5-bromo-1-((2S,4S,5R)-4-hydroxy-5-(hydroxymethyl)-5-vinyltetrahydrofuran-2-yl)pyrimidine-2,4(1H,3H)-dione]
> 50 µM | COC[C@@]1(CO)C=C[C@H](n2cc(C)c(=O)[nH]c2=O)O1 [compound 48, 1-((2R,5S)-5-(hydroxymethyl)-5-(methoxymethyl)-2,5-dihydrofuran-2-yl)-5-methylpyrimidine-2,4(1H,3H)-dione]
> 50 µM | C#C[C@]1(CO)C=C[C@@H](n2cc(F)c(N)nc2=O)O1 [Cpd. No. 74, 4-amino-1-[(2S,5S)-5-ethynyl-5-(hydroxymethyl)-2H-furan-2-yl]-5-fluoro-pyrimidin-2-one]
0.432 µM | CC[C@]1(CO)OC(n2cc(Br)c(N)nc2=O)C[C@@H]1O (stereo partly drawn) [Cpd. No. 70, 4-amino-5-bromo-1-((4S,5R)-5-ethyl-4-hydroxy-5-(hydroxymethyl)tetrahydrofuran-2-yl)pyrimidin-2(1H)-one]
0.013 µM | C=C[C@]1(CO)O[C@@H](n2cnc3c(O)nc(N)nc32)C[C@@H]1O [Cpd. No. 9, 2-amino-9-((2R,4S,5R)-4-hydroxy-5-(hydroxymethyl)-5-vinyltetrahydrofuran-2-yl)-1H-purin-6(9H)-one]
17 µM | C#C[C@@]1(CO)O[C@@H](n2cnc3c(=O)[nH]c(N)nc32)C[C@H]1O [Cpd. No. 79, 2-amino-9-[(2R,4R,5S)-5-ethynyl-4-hydroxy-5-(hydroxymethyl)tetrahydrofuran-2-yl]-1H-purin-6-one]
0.469 µM | C=C[C@]1(CO)O[C@@H](n2cnc3c(NC4CC4)nc(F)nc32)C[C@@H]1O [Cpd. No. 5, (2R,3S,5R)-5-(6-(cyclopropylamino)-2-fluoro-9H-purin-9-yl)-2-(hydroxymethyl)-2-vinyltetrahydrofuran-3-ol]
> 50 µM | Cc1cn([C@@H]2C[C@@H](O)[C@H](CO)O2)c(=O)[nH]c1=O [compound 95, 1-((2S,4R,5S)-4-hydroxy-5-(hydroxymethyl)tetrahydrofuran-2-yl)-5-methylpyrimidine-2,4(1H,3H)-dione]
> 50 µM | C#C[C@]1(CO)O[C@H](n2cc(Br)c(=O)[nH]c2=O)C[C@@H]1O [compound 53, 5-bromo-1-((2S,4S,SR)-5-ethynyl-4-hydroxy-5-(hydroxymethyl)tetrahydrofuran-2-yl)pyrimidine-2,4(1H,3H)-dione]
> 50 µM | N#C[C@]1(CO)O[C@@H](n2cc(Cl)c(N)nc2=O)C[C@@H]1O [compound 164, (2R,3S,5R)-5-(4-amino-5-chloro-2-oxopyrimidin-1(2H)-yl)-3-hydroxy-2-(hydroxymethyl)tetrahydrofuran-2-carbonitrile]
> 50 µM | C#C[C@]1(CO)OC(n2cc(C3CC3)c(=O)[nH]c2=O)C[C@@H]1O (stereo partly drawn) [compound 52, 5-cyclopropyl-1-((4S,5R)-5-ethynyl-4-hydroxy-5-(hydroxymethyl)tetrahydrofuran-2-yl)pyrimidine-2,4(1H,3H)-dione]
1.7 µM | C=C[C@]1(CO)O[C@@H](n2cnc3c(O)ncnc32)C[C@@H]1O [Cpd. No. 100, 9-((2R,4S,5R)-4-hydroxy-5-(hydroxymethyl)-5-vinyltetrahydrofuran-2-yl)-9H-purin-6-ol]

same assay, conditions: Human LINE-1 activity inhibition; HeLa cells, reporter plasmid pYX017, Firefly/Renilla, 72 h incubation

IC50 | SMILES
> 50 µM | C#C[C@@]1(CO)C=C[C@H](n2cc(F)c(=O)[nH]c2=O)O1 [Cpd. No. 19, 1-((2R,5R)-5-ethynyl-5-(hydroxymethyl)-2,5-dihydrofuran-2-yl)-5-fluoropyrimidine-2,4(1H,3H)-dione]
